Assay results taken from the NIST ThermoML archive (doi:10.1021/je200628n).
± gives the expanded uncertainty stated by the source.

Test: activity coefficient (dimensionless); of the first substance listed, at infinite dilution; xn = mol fraction of the nth substance listed
Details: 101 kPa, Liquid, Chromatography, x1 = 0

CCCOC(C)=O [propyl ethanoate] + NCCCCCCCCCCN
activity coefficient (338.2 K): 1.39 ± 0.066 | activity coefficient (348.15 K): 1.11 ± 0.05 | activity coefficient (353.22 K): 0.991 ± 0.044

CCCCO [butan-1-ol] + NCCCCCCCCCCN
activity coefficient (338.2 K): 0.721 ± 0.035 | activity coefficient (348.15 K): 0.774 ± 0.037 | activity coefficient (353.22 K): 0.815 ± 0.038

C=CCCCCCCCC [1-decene] + NCCCCCCCCCCN
activity coefficient (338.2 K): 4.34 ± 0.22 | activity coefficient (348.15 K): 3.82 ± 0.2 | activity coefficient (353.22 K): 3.57 ± 0.18

CCCCCCCl [1-chlorohexane] + NCCCCCCCCN
activity coefficient (328.15 K): 3.85 ± 0.2 | activity coefficient (338.15 K): 2.73 ± 0.14 | activity coefficient (343.15 K): 2.38 ± 0.12 | activity coefficient (348.15 K): 2.02 ± 0.1

CCCCC [pentane] + NCCCCCCCCCCN
activity coefficient (3.9 K): 353 ± 18 | activity coefficient (4.022 K): 348 ± 18 | activity coefficient (4.331 K): 338 ± 18

CCCCO [butan-1-ol] + NCCCCCCCCN
activity coefficient (328.15 K): 0.669 ± 0.034 | activity coefficient (338.15 K): 0.675 ± 0.034 | activity coefficient (343.15 K): 0.681 ± 0.034 | activity coefficient (348.15 K): 0.692 ± 0.035

C=CCCCC [hex-1-ene] + NCCCCCCCCCCCCN
activity coefficient (348.25 K): 4.28 ± 0.22 | activity coefficient (353.15 K): 4.12 ± 0.21 | activity coefficient (358.25 K): 3.93 ± 0.2 | activity coefficient (363.21 K): 3.8 ± 0.2

CCO [ethanol] + NCCCCCCCCN
activity coefficient (328.15 K): 0.384 ± 0.029 | activity coefficient (338.15 K): 0.407 ± 0.029 | activity coefficient (343.15 K): 0.42 ± 0.029 | activity coefficient (348.15 K): 0.435 ± 0.029

CCCCC [pentane] + NCCCCCCCCN
activity coefficient (328.21 K): 1.37 ± 0.065 | activity coefficient (338.23 K): 1.27 ± 0.059 | activity coefficient (343.19 K): 1.22 ± 0.056 | activity coefficient (348.25 K): 1.16 ± 0.053

CCCCOC(C)=O [butyl ethanoate] + NCCCCCCCCCCN
activity coefficient (338.2 K): 1.5 ± 0.073 | activity coefficient (348.15 K): 1.17 ± 0.054 | activity coefficient (353.22 K): 1.03 ± 0.046

CCOCC [diethyl ether] + NCCCCCCCCN
activity coefficient (328.15 K): 3.52 ± 0.18 | activity coefficient (338.15 K): 3.4 ± 0.17 | activity coefficient (343.15 K): 3.37 ± 0.17 | activity coefficient (348.15 K): 3.36 ± 0.17

C=CCCCC [hex-1-ene] + NCCCCCCCCCCN
activity coefficient (338.2 K): 3.37 ± 0.17 | activity coefficient (348.15 K): 3.06 ± 0.16 | activity coefficient (353.22 K): 2.92 ± 0.15

C=CCCC [1-pentene] + NCCCCCCCCCCN
activity coefficient (338.2 K): 3.23 ± 0.17 | activity coefficient (348.15 K): 2.98 ± 0.15 | activity coefficient (353.22 K): 2.88 ± 0.15

C=CCCCCCCCC [1-decene] + NCCCCCCCCCCCCN
activity coefficient (348.25 K): 5.05 ± 0.26 | activity coefficient (353.15 K): 4.8 ± 0.25 | activity coefficient (358.25 K): 4.47 ± 0.23 | activity coefficient (363.21 K): 4.24 ± 0.22

c1ccccc1 [benzene] + NCCCCCCCCCCN
activity coefficient (338.2 K): 1.72 ± 0.086 | activity coefficient (348.15 K): 1.61 ± 0.079 | activity coefficient (353.22 K): 1.58 ± 0.077

CCCCCCC [heptane] + NCCCCCCCCN
activity coefficient (328.15 K): 4.36 ± 0.22 | activity coefficient (338.15 K): 4.09 ± 0.21 | activity coefficient (343.15 K): 4 ± 0.2 | activity coefficient (348.15 K): 3.95 ± 0.2

CCCCCCl [1-chloropentane] + NCCCCCCCCN
activity coefficient (328.15 K): 2.71 ± 0.14 | activity coefficient (338.15 K): 2.12 ± 0.11 | activity coefficient (343.15 K): 1.92 ± 0.098 | activity coefficient (348.15 K): 1.73 ± 0.087

CCOC(C)=O [ethyl acetate] + NCCCCCCCCCCCCN
activity coefficient (348.25 K): 1.36 ± 0.064 | activity coefficient (353.15 K): 1.29 ± 0.06 | activity coefficient (358.25 K): 1.22 ± 0.056 | activity coefficient (363.21 K): 1.15 ± 0.052

CCOCC [diethyl ether] + NCCCCCCCCCCN
activity coefficient (338.2 K): 3.84 ± 0.2 | activity coefficient (348.15 K): 3.69 ± 0.19 | activity coefficient (353.22 K): 3.64 ± 0.19

CCCCCCCl [1-chlorohexane] + NCCCCCCCCCCN
activity coefficient (338.2 K): 3.46 ± 0.18 | activity coefficient (348.15 K): 2.81 ± 0.14 | activity coefficient (353.22 K): 2.54 ± 0.13

C=CCCC [1-pentene] + NCCCCCCCCCCCCN
activity coefficient (348.25 K): 4.21 ± 0.22 | activity coefficient (353.15 K): 4.04 ± 0.21 | activity coefficient (358.25 K): 3.89 ± 0.2 | activity coefficient (363.21 K): 3.75 ± 0.19
